For 14 compounds, EC50 and Emax results are on record in patent US20240208992A1, “MACROCYCLES AS CFTR MODULATORS” (Idorsia Pharmaceuticals Ltd, priority 2021, published 2024).

The target in the experiment is human F508del-CFTR (Homo sapiens, UniProt P13569, DEL508-508). Briefly: F508del-CFTR cell surface expression (corrector activity), DiscoveRx ß-galactosidase complementation chemiluminescence assay in recombinant U2OS cell line.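 As to all read-outs here: U2OS cells co-expressing ProLink-tagged F508del-CFTR and a membrane-anchored enzyme acceptor, where more surface CFTR restores β-galactosidase activity measured by chemiluminescence.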 The settings on record: U2OS cell line, 16h compound incubation; for pEC50: EC50, F508del-CFTR cell surface expression, geomean values; for Emax: U2OS, in relation to the Emax of the corrector lumacaftor (=100%), arithmetic mean values.
human F508del-CFTR, sequence (P13569 with tags, fused parts or gaps DEL508-508): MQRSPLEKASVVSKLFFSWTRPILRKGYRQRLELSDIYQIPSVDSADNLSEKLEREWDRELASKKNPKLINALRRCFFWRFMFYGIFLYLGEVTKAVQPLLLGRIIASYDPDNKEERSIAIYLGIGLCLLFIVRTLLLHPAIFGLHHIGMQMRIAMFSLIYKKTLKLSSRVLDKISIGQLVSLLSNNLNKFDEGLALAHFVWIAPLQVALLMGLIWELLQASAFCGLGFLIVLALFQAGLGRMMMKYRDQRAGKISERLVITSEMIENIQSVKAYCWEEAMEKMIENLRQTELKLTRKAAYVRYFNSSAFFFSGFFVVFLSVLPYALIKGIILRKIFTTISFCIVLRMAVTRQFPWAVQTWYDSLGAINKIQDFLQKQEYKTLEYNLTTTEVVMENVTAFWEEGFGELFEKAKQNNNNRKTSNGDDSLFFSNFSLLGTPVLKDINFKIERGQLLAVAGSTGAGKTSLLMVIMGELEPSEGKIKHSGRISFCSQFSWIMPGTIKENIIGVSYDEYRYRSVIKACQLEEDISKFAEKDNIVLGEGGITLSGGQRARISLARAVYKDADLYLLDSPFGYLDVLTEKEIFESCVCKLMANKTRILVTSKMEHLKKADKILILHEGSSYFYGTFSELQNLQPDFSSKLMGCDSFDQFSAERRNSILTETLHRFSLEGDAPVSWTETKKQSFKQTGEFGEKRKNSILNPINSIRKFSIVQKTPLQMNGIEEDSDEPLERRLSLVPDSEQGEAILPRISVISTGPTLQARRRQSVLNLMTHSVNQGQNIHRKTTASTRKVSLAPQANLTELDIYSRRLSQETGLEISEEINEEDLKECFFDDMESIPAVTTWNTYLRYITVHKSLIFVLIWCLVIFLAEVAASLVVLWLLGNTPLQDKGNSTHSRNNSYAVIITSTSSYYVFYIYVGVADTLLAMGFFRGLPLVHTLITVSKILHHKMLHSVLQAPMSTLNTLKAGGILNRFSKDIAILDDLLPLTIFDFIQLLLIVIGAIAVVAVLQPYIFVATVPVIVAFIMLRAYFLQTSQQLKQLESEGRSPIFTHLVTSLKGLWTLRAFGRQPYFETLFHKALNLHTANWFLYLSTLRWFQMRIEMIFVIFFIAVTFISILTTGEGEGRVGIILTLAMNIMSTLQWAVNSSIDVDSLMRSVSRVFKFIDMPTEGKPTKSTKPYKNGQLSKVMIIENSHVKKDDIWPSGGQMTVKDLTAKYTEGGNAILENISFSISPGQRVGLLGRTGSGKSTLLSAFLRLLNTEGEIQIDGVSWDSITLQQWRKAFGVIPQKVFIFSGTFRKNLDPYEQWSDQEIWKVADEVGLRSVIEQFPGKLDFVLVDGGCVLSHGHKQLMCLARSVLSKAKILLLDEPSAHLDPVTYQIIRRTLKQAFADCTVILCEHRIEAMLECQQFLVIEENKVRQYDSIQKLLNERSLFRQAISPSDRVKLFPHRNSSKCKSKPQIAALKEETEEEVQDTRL

pEC50: −log10 of the molar value.

The pEC50 is −log10 of the EC50, conventionally taken in molar units. Usually Emax stands for the maximal effect, on the per cent scale that the assay sets.

Description: The method measures the effect of over-night compound incubation on F508del-CFTR cell surface expression in a recombinant U2OS cell line (DiscoveRx, #93-0987C3). This cell line is engineered to co-express (i) human F508del-CFTR tagged with a Prolink (PK=short ß-galactosidase fragment) and (ii) the remainder of the ß-galactosidase enzyme (Enzyme Acceptor; EA) localized to the plasma membrane. Incubation with compounds that increase PK-tagged F508del-CFTR at the plasma membrane will lead to complementation of the EA fragment to form a functional ß-galactosidase enzyme which is quantified by a chemiluminescence reaction.
The cells are incubated for 5h in the incubator before the addition of 5 μl/well of compound dilution series (5× working stocks in full medium). […] The cells are co-incubated with the compounds for 16h in the incubator at 37° C., 5% CO2. The next day, the cell plates are incubated for 2h at RT in the dark. […] Concentration-response curves are generated using compound-intrinsic maximal efficacy as upper plateau, and from these CRCs compound-intrinsic EC50 values are determined.
The calculated EC50 values may fluctuate depending on the daily assay performance. […] EC50 values from several measurements are given as geomean values. The calculated Emax values may fluctuate depending on the daily assay performance. […] Emax values from several measurements are given as arithmetic mean values.

Turning to `CC(C)C[C@H]1C(=O)N(C)C2(CC2)C(=O)N[C@H](Cc2ccccc2)COc2cnc3ccc(F)cc3c2C(=O)N[C@H](C(=O)NCCc2cccc(-c3cnccn3)c2)CC(=O)N1C` [Example 134, (3′S,7′S,13′R)-13′-benzyl-20′-fluoro-7′-isobutyl-6′,9′-dimethyl-1′,5′,8′,11′-tetraoxo-N-(3-(pyrazin-2-yl)phenethyl)-2′,3′,4′,5′,6′,7′,8′,9′,11′,12′,13′,14′-dodecahydro-1′H-spiro[cyclopropane-1,10′-[1]oxa[4,7,10,14]tetraazacycloheptadecino[17,16-c]quinoline]-3′-carboxamide], the pEC50 was 6.30 and the Emax came to 150%.
Take `CC(C)C[C@H]1C(=O)N(C)C2(CC2)C(=O)N[C@H](Cc2ccccc2)COc2cnc3ccc(F)cc3c2C(=O)N[C@H](C(=O)NCCc2ccc(-n3nccn3)cc2)CC(=O)N1C` [Example 135, (3′S,7′S,13′R)-N-(4-(2H-1,2,3-triazol-2-yl)phenethyl)-13′-benzyl-20′-fluoro-7′-isobutyl-6′,9′-dimethyl-1′,5′,8′,11′-tetraoxo-2′,3′,4′,5′,6′,7′,8′,9′,11′,12′,13′,14′-dodecahydro-1′H-spiro[cyclopropane-1,10′-[1]oxa[4,7,10,14]tetraazacycloheptadecino[17,16-c]quinoline]-3′-carboxamide]: the pEC50 is 6.75 and the maximum response (Emax) came out at 255%.
Consider `CC(C)C[C@H]1C(=O)N(C)C2(CC2)C(=O)N[C@H](Cc2ccccc2)COc2cnc3ccc(F)cc3c2C(=O)N[C@H](C(=O)NCCc2cccc(-n3nccn3)c2)CC(=O)N1C` [Example 136, (3′S,7′S,13′R)-N-(3-(2H-1,2,3-triazol-2-yl)phenethyl)-13′-benzyl-20′-fluoro-7′-isobutyl-6′,9′-dimethyl-1′,5′,8′,11′-tetraoxo-2′,3′,4′,5′,6′,7′,8′,9′,11′,12′,13′,14′-dodecahydro-1′H-spiro[cyclopropane-1,10′-[1]oxa[4,7,10,14]tetraazacycloheptadecino[17,16-c]quinoline]-3′-carboxamide], for which the pEC50 is 6.57 and the maximum response (Emax) was found to be 271%.
The corresponding values for `CC(C)C[C@H]1C(=O)N(C)C2(CC2)C(=O)N[C@H](Cc2ccccc2)COc2cnc3ccc(F)cc3c2C(=O)N[C@H](C(=O)NCCc2ccc(-c3ncccn3)cc2)CC(=O)N1C` [Example 137, (3′S,7′S,13′R)-13′-benzyl-20′-fluoro-7′-isobutyl-6′,9′-dimethyl-1′,5′,8′,11′-tetraoxo-N-(4-(pyrimidin-2-yl)phenethyl)-2′,3′,4′,5′,6′,7′,8′,9′,11′,12′,13′,14′-dodecahydro-1′H-spiro[cyclopropane-1,10′-[1]oxa[4,7,10,14]tetraazacycloheptadecino[17,16-c]quinoline]-3′-carboxamide] are 6.60 and 311%.
The like results for `CC(C)C[C@H]1C(=O)N(C)C2(CC2)C(=O)N[C@H](Cc2ccccc2)COc2cnc3ccc(F)cc3c2C(=O)N[C@H](C(=O)NCCc2cccc(-c3ncccn3)c2)CC(=O)N1C` [Example 138, (3′S,7′S,13′R)-13′-benzyl-20′-fluoro-7′-isobutyl-6′,9′-dimethyl-1′,5′,8′,11′-tetraoxo-N-(3-(pyrimidin-2-yl)phenethyl)-2′,3′,4′,5′,6′,7′,8′,9′,11′,12′,13′,14′-dodecahydro-1′H-spiro[cyclopropane-1,10′-[1]oxa[4,7,10,14]tetraazacycloheptadecino[17,16-c]quinoline]-3′-carboxamide] were, in that order, 6.27 and 292%.
The like results for `CC(C)C[C@H]1C(=O)N(C)C2(CC2)C(=O)N[C@H](Cc2ccccc2)COc2cnc3ccc(F)cc3c2C(=O)N[C@H](C(=O)NCCc2cnn(C3CC3)c2)CC(=O)N1C` [Example 139, (3′S,7′S,13′R)-13′-benzyl-N-(2-(1-cyclopropyl-1H-pyrazol-4-yl)ethyl)-20′-fluoro-7′-isobutyl-6′,9′-dimethyl-1′,5′,8′,11′-tetraoxo-2′,3′,4′,5′,6′,7′,8′,9′,11′,12′,13′,14′-dodecahydro-1′H-spiro[cyclopropane-1,10′-[1]oxa[4,7,10,14]tetraazacycloheptadecino[17,16-c]quinoline]-3′-carboxamide] were, in that order, 6.33 and 381%.
As to `CC(C)C[C@H]1C(=O)N(C)C2(CC2)C(=O)N[C@H](Cc2ccccc2)COc2cnc3ccc(F)cc3c2C(=O)N[C@H](C(=O)NCCc2nc(C3CC3)no2)CC(=O)N1C` [Example 140, (3′S,7′S,13′R)-13′-benzyl-N-(2-(3-cyclopropyl-1,2,4-oxadiazol-5-yl)ethyl)-20′-fluoro-7′-isobutyl-6′,9′-dimethyl-1′,5′,8′,11′-tetraoxo-2′,3′,4′,5′,6′,7′,8′,9′,11′,12′,13′,14′-dodecahydro-1′H-spiro[cyclopropane-1,10′-[1]oxa[4,7,10,14]tetraazacycloheptadecino[17,16-c]quinoline]-3′-carboxamide], the pEC50 was 6.85 and the Emax worked out at 318%.
The like results for `Cc1cc(CCNC(=O)[C@@H]2CC(=O)N(C)[C@@H](CC(C)C)C(=O)N(C)C3(CC3)C(=O)N[C@H](Cc3ccccc3)COc3cnc4ccc(F)cc4c3C(=O)N2)no1` [Example 141, (3′S,7′S,13′R)-13′-benzyl-20′-fluoro-7′-isobutyl-6′,9′-dimethyl-N-(2-(5-methylisoxazol-3-yl)ethyl)-1′,5′,8′,11′-tetraoxo-2′,3′,4′,5′,6′,7′,8′,9′,11′,12′,13′,14′-dodecahydro-1′H-spiro[cyclopropane-1,10′-[1]oxa[4,7,10,14]tetraazacycloheptadecino[17,16-c]quinoline]-3′-carboxamide] were, in that order, 6.50 and 331%.
On to `CC(C)C[C@H]1C(=O)N(C)C2(CC2)C(=O)N[C@H](Cc2ccccc2)COc2cnc3ccc(F)cc3c2C(=O)N[C@H](C(=O)NCCc2cc(C3CC3)on2)CC(=O)N1C` [Example 142, (3′S,7′S,13′R)-13′-benzyl-N-(2-(5-cyclopropylisoxazol-3-yl)ethyl)-20′-fluoro-7′-isobutyl-6′,9′-dimethyl-1′,5′,8′,11′-tetraoxo-2′,3′,4′,5′,6′,7′,8′,9′,11′,12′,13′,14′-dodecahydro-1′H-spiro[cyclopropane-1,10′-[1]oxa[4,7,10,14]tetraazacycloheptadecino[17,16-c]quinoline]-3′-carboxamide], for which the pEC50 is 6.71 and the Emax came to 381%.
The corresponding values for `CC(C)C[C@H]1C(=O)N(C)C2(CC2)C(=O)N[C@H](Cc2ccccc2)COc2cnc3ccc(F)cc3c2C(=O)N[C@H](C(=O)NCCc2cnn(C)c2)CC(=O)N1C` [Example 143, (3′S,7′S,13′R)-13′-benzyl-20′-fluoro-7′-isobutyl-6′,9′-dimethyl-N-(2-(1-methyl-1H-pyrazol-4-yl)ethyl)-1′,5′,8′,11′-tetraoxo-2′,3′,4′,5′,6′,7′,8′,9′,11′,12′,13′,14′-dodecahydro-1′H-spiro[cyclopropane-1,10′-[1]oxa[4,7,10,14]tetraazacycloheptadecino[17,16-c]quinoline]-3′-carboxamide] are 6.04 and 320%.
With `CC(C)C[C@H]1C(=O)N(C)C2(CC2)C(=O)N[C@H](Cc2ccccc2)COc2cnc3ccc(F)cc3c2C(=O)N[C@H](C(=O)NCCc2noc(C3CC3)n2)CC(=O)N1C` [Example 144, (3′S,7′S,13′R)-13′-benzyl-N-(2-(5-cyclopropyl-1,2,4-oxadiazol-3-yl)ethyl)-20′-fluoro-7′-isobutyl-6′,9′-dimethyl-1′,5′,8′,11′-tetraoxo-2′,3′,4′,5′,6′,7′,8′,9′,11′,12′,13′,14′-dodecahydro-1′H-spiro[cyclopropane-1,10′-[1]oxa[4,7,10,14]tetraazacycloheptadecino[17,16-c]quinoline]-3′-carboxamide], the pEC50 is 6.68 and the Emax was determined as 327%.
The like results for `CC(C)C[C@H]1C(=O)N(C)C2(CC2)C(=O)N[C@H](Cc2ccccc2)COc2cnc3ccccc3c2C(=O)N[C@H](C(=O)NCC(F)(F)c2ccccc2)CC(=O)N1C` [Example 145, (3′S,7′S,13′R)-13′-benzyl-N-(2,2-difluoro-2-phenylethyl)-7′-isobutyl-6′,9′-dimethyl-1′,5′,8′,11′-tetraoxo-2′,3′,4′,5′,6′,7′,8′,9′,11′,12′,13′,14′-dodecahydro-1′H-spiro[cyclopropane-1,10′-[1]oxa[4,7,10,14]tetraazacycloheptadecino[17,16-c]quinoline]-3′-carboxamide] were, in that order, 6.51 and 107%.
The corresponding values for `Cc1noc(CCNC(=O)[C@@H]2CC(=O)N(C)[C@@H](CC(C)C)C(=O)N(C)C3(CC3)C(=O)N[C@H](Cc3ccccc3)COc3cnc4ccc(F)cc4c3C(=O)N2)n1` [Example 146, (3′S,7′S,13′R)-13′-benzyl-20′-fluoro-7′-isobutyl-6′,9′-dimethyl-N-(2-(3-methyl-1,2,4-oxadiazol-5-yl)ethyl)-1′,5′,8′,11′-tetraoxo-2′,3′,4′,5′,6′,7′,8′,9′,11′,12′,13′,14′-dodecahydro-1′H-spiro[cyclopropane-1,10′-[1]oxa[4,7,10,14]tetraazacycloheptadecino[17,16-c]quinoline]-3′-carboxamide] are 6.61 and 318%.
The corresponding values for `Cc1cc(CCNC(=O)[C@@H]2CC(=O)N(C)[C@@H](CC(C)C)C(=O)N(C)C3(CC3)C(=O)N[C@H](Cc3ccccc3)COc3cnc4ccc(F)cc4c3C(=O)N2)on1` [Example 147, (3′S,7′S,13′R)-13′-benzyl-20′-fluoro-7′-isobutyl-6′,9′-dimethyl-N-(2-(3-methylisoxazol-5-yl)ethyl)-1′,5′,8′,11′-tetraoxo-2′,3′,4′,5′,6′,7′,8′,9′,11′,12′,13′,14′-dodecahydro-1′H-spiro[cyclopropane-1,10′-[1]oxa[4,7,10,14]tetraazacycloheptadecino[17,16-c]quinoline]-3′-carboxamide] are 6.57 and 339%.
